# Test results published in patent US20130231360A1, “Beta-Carbolines as Inhibitors of Haspin and DYRK Kinases” (THE BRIGHAM AND WOMEN S HOSPITAL, INC., priority 2010, published 2013).
# Read-outs that look alike come from different tables or passages of the source.
# Target: T1, Haspin kinase (Homo sapiens, UniProt Q8TF76)
# T1 construct: This full-length Haspin gene was cloned into the pMALc2E vector; made in house; host or cells: E. coli Rosetta 2(DE3)pLysS
# T1 sequence (Q8TF76 1-798): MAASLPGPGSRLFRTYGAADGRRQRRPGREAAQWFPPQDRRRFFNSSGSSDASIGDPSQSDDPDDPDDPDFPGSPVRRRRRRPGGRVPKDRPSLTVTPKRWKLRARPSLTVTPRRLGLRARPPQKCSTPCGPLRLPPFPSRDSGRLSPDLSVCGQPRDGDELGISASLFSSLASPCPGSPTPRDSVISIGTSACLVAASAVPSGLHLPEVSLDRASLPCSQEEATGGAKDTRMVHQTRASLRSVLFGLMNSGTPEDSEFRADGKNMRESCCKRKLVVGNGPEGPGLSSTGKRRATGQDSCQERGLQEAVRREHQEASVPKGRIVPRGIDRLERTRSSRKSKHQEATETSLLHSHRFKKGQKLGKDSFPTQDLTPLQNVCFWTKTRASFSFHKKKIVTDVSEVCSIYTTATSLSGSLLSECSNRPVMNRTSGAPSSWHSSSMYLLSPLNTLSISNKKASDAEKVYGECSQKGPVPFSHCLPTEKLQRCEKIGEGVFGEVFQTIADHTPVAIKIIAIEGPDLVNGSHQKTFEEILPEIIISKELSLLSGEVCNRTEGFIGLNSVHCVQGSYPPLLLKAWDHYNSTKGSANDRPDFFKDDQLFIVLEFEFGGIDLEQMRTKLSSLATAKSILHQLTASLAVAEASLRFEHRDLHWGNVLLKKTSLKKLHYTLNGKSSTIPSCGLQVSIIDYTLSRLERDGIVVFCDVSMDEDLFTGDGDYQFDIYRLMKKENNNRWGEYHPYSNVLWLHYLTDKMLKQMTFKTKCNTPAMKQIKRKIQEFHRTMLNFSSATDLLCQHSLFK
# Assay: TR-FRET Haspin assay
# Type: biochemical
# Settings: for Haspin kinase inhibitory activity (in words): high throughput screen by TR-FRET, hits revalidated in radiometric assay and confirmed in cellular assay
# Description: A synthetic codon-optimized human Haspin cDNA was made in vector pUC57 at GenScript Corporation (Piscataway, N.J.) to facilitate bacterial expression. This full-length Haspin gene was cloned into the pMALc2E vector (New England Biolabs, Ipswich, Mass.) using EcoR I and Sal I sites. Haspin was expressed and purified as an N-terminal MBP fusion protein from E. coli Rosetta™2(DE3)pLysS cells (Novagen, Madison, Wis.). A freshly transformed colony was used to initiate a small volume liquid culture in LB medium with 2 g/l glucose, 34 μg/ml chloramphenicol and 100 μg/ml ampicillin. This culture was used to inoculate a large volume of the same medium and grown until an absorbance at 600 nm of 0.5 was reached. Protein expression was induced by adding 0.3 mM isopropyl thiogalactoside and growth with shaking at room temperature for 14 hours. Affinity column chromatography was carried out using amylose resin following the manufacturer's instructions (New England Biolabs). The fusion protein was eluted in 50 mM Tris, pH 7.5, 200 mM NaCl, 10 mM maltose and dialyzed into 50 mM Tris, pH 7.5, 200 mM NaCl, 2 mM DTT and 50% glycerol. The purity and yield of intact fusion protein was determined by SDS-PAGE and Coomassie Blue staining, in comparison with known quantities of bovine serum albumin.
# This peptide carried biotin on the side chain of the C-terminal lysine. Recombinant full-length human histone H3 was from New England Biolabs. ATP and Staurosporine were purchased from Sigma-Aldrich (St Louis, Mo.). Rabbit monoclonal anti-Histone H3T3ph antibody (clone JY325) from Millipore (Billerica, Mass.) was directly labeled by PerkinElmer (Waltham, Mass.) with LANCE Eu W1024. For indirect detection, LANCE Eu W1024 labeled anti-rabbit IgG antibody was used (PerkinElmer). Streptavidin conjugated to SureLight-Allophycocyanin (PerkinElmer) was used as the acceptor fluorophore.
# A CRS CataLyst Express robotic arm (Thermo Fisher Scientific, Waltham, Mass.) and a Cybi-well 384 channel simultaneous pipettor (CyBio AG, Jena, Germany) were used to carry out the high throughput screening of a small molecule library. Kinase reactions were performed in 50 mM Tris, pH 7.5, 5 mM MgCl2, 1 mM DTT, 0.01% Brij-35 using Proxiplate 384 Plus white assay plates (PerkinElmer). […] The reaction was incubated for 10 minutes at room temperature. The reaction was terminated by addition of […] 50 mM EDTA, 2 nM Europium labeled anti-Histone H3T3ph antibody, 40 nM Streptavidin-APC. After a two hour incubation at room temperature, TR-FRET measurements were performed using a PHERAstar HTS microplate reader (BMG Labtech, Offenberg, Germany), and were expressed as ratios of acceptor fluorescence at 665 nm over donor fluorescence at 620 nm.
# Data were analyzed using GraphPad Prism Version 4 (GraphPad Software Inc, La Jolla, Calif.). No inhibitor (“MAX”) and Staurosporine inhibitor (“MIN”) controls were used to calculate Z′ values and signal to background ratios during the high throughput screen. […] Km concentrations were also determined by non-linear regression.
# To identify Haspin inhibitors by high throughput screening a homogeneous kinase assay based on time-resolved fluorescence resonance energy transfer (TR-FRET) was designed (Patnaik D., et al. J Biomol. Screen 13: 1025-1034, […].). This TR-FRET assay was utilized to screen a small molecule library of approximately 140,000 compounds. Primary hits were re-tested by TR-FRET assay using the peptide substrate and then revalidated by assaying the compounds in a radiometric assay using full-length Histone H3 as a protein substrate.
# IC50 values were determined for inhibition of Haspin kinase utilizing the TR-FRET assay described in Example 3.
# [1] = inhibition of Haspin kinase, TR-FRET assay of Example 3, MBP-Haspin, H3(1-21)-biotin peptide 0.1 μM, ATP 200 μM, read-out: IC50
Compound,IC50 (read-out: IC50) [nM],IC50 [1] [nM],further results
c1ccc2c(c1)[nH]c1cnccc12 [LDN-14063],> 10000,,
COc1ccc2c(c1)[nH]c1c(/C=C/c3ccccc3)nccc12 [LDN-57292],< 2000,,Haspin kinase inhibitory activity (in words): identified as a Haspin kinase inhibitors
"COc1ccc2c(c1)[nH]c1c(C)nccc12 [LDN-97388, harmine, reference compound]",,,IC50: < 1000 nM; Haspin kinase inhibitory activity (in words): identified as a Haspin kinase inhibitors
COc1ccc2c(c1)[nH]c1ncccc12 [LDN-209919],> 100000,,
Cc1nccc2c1[nH]c1cc(OCCCCNC(=O)OC(C)(C)C)ccc12 [LDN-209920],> 10000,,
Cc1nccc2c1[nH]c1cc(OCCCNC(=O)OC(C)(C)C)ccc12 [LDN-209921],> 10000,,
Cc1nccc2c1[nH]c1cc(OCCCN)ccc12 [LDN-209931],,< 1000,
Cc1nccc2c1[nH]c1cc(OCCCCN)ccc12 [LDN-209932],,< 2000,
COc1ccc2c(c1)[nH]c1ccccc12 [LDN-209934],> 1000,,
COc1ccc2c(c1)[nH]c1c(-c3ccccc3)nccc12 [LDN-209952],> 5000,,
COc1ccc2c3ccnc(C)c3n(CCCCN)c2c1 [LDN-209953],,< 200,
COc1ccc2c3ccncc3n(CCCCN)c2c1 [LDN-209983],,< 350,
CCc1nccc2c3ccc(OC)cc3n(CCCCN)c12 [LDN-209984],,< 200,
COc1ccc2c3ccnc(C(C)C)c3n(CCCCN)c2c1 [LDN-209985],,< 600,
Cc1nccc2c3ccc(O)cc3n(CCCCN)c12 [LDN-209986],,< 200,
Cc1nccc2c3ccc(F)cc3n(CCCCN)c12 [LDN-209987],,< 600,
COc1cccc2c3ccnc(C)c3n(CCCCN)c12 [LDN-211893],,< 300,
COc1ccc2c(c1)c1ccnc(C)c1n2CCCCN [LDN-211894],,< 3000,
COc1cccc2c1c1ccnc(C)c1n2CCCCN [LDN-211895],,< 3500,
Cc1nccc2c3cc4c(cc3n(CCCCN)c12)OCO4 [LDN-211896],,< 700,
COc1ccc2c3ccnc(C)c3n(CCCCN)c2c1Cl [LDN-211897],,< 1200,
COc1ccc2c3ccnc(C(F)(F)F)c3n(CCCCN)c2c1 [LDN-211898],,< 150,
Cc1nccc2c3ccc(NS(C)(=O)=O)cc3n(CCCCN)c12 [LDN-211899],,< 1000,
CNCCCCn1c2cc(OC)ccc2c2ccnc(C)c21 [LDN-211900],,< 400,
COc1ccc2c3ccnc(C)c3n(CCCCN)c2c1 [LDN-211901],,< 500,
COc1ccc2c3ccnc(C)c3n(CCCC(N)c3ccccc3)c2c1 (centres unmarked) [LDN-211902],< 200,,
Cc1nccc2c3ccc(OC(C)(C)C)cc3n(CCCCN)c12 [LDN-211903],< 5000,,
NCCCCn1c2cc(O)ccc2c2ccnc(C(F)(F)F)c21 [LDN-211998],,< 300,
"harmol [LDN-21813, reference compound]",,< 1500,Haspin kinase inhibitory activity (in words): identified as a Haspin kinase inhibitors
